Results from patent publication US20240398814A1, “KRAS INHIBITOR AND HDAC INHIBITOR COMBINATION FOR THE TREATMENT OF CANCER” (Northwestern University, priority 2023, published 2024).

Legend:
KL lung tumors = assay: 6-week in vivo entinostat and trametinib treatment, flow cytometry immune profiling; design: species or system mouse; settings: 6 weeks; percentage of total CD45+ cells
Procedure: The 6-week duration study was carried out according to the same experimental design except for the following: To ensure an extended treatment duration, treatment was initiated after tumor burden was detected by BLI in >30% of mice in the study. Entinostat was administered at a dose of 10 mg/kg to assess systemic drug impact at a dose corresponding to potent tumor growth control. Because mice were gavaged twice daily for an extended duration, an additional drug holiday was built into the dosing schedule starting after 3 weeks of treatment; mice were administered drug using the following schedule: 4 days on, 1 day off, 1 day on, and 1 day off (imaging day).
Tumor digestion and cell isolation: Lungs were removed from the chest, washed with PBS, dried on paper towels and then tumor nodules were excised from adjacent tissue and both adjacent tissue and nodules were weighed. Nodules or adjacent tissue was minced into small pieces and suspended in digestion media consisting of RPMI 1640 with 2% FBS, 0.5 ug/mL of DNase I and 1 unit/mL collagenase Type I (Sigma-Aldrich Cat #0000137295) and placed in an incubator at 37° C. for 45 minutes, shaking once during digestion. […]

KL LJE1 cells = assay: Western blot and qRT-PCR of FGFR1, NKX2-1 and ERK phosphorylation in drug-treated KL LJE1 cells; assay type: cell-based, mouse; settings: 13 days
Procedure: All cell lines were incubated at 37° C. and were maintained in an atmosphere containing 5% CO2. Cells were tested for Mycoplasma (Lonza) using manufacturer's conditions and were deemed negative. Cells were grown in Dulbecco's modified Eagles medium (DMEM) plus 10% fetal bovine serum (Gibco) and were continuously maintained under antibiotic selection for stable cell lines. Proliferation assays were performed by plating 2×10^3 cells per well of a 6-well plate, and cells were counted 5 days post-plating. Drug treatments were carried out using the following doses: entinostat 1 uM or 2 uM, RGFP966 10uM, TSA 0.5 uM, BRD3308 5 uM, trametinib 5 nM, 10 nM, and 25 nM, and MRTX1133 10 nM, 25 nM, and 50 nM, as indicated for the indicated treatment lengths. Media was changed and fresh drug added every 2 days.
mRNA was prepared using the Quick-RNA Miniprep kit (Zymo Research), including DNase treatment. cDNA was synthesized from 2 μg of RNA using SuperScript III (Life Technologies), and qPCR was carried out with diluted cDNA, appropriate primers, and SYBR Green PCR master mix (ThermoFisher Scientific) using a C1000 Thermal Cycler (BioRad). Relative mRNA levels were calculated using the delta Ct method, using Tbp as an internal control.
Protein lysates in CST buffer (20 mM Tris pH 7.5, 150 mM NaCl, 1% Triton X-100, 50 mM NaF, 1 mM EDTA, 1 mM EGTA, 2.5 mM PyroPhosphate, 2 mM beta-glycerol-phosphate, 1 mM orthovanadate, 0.01 mM Calyculan A) with protease inhibitors were equilibrated for protein levels using a BCA protein assay kit (Pierce), resolved on 8% SDS-PAGE gels, and transferred to membrane. Membranes were blocked in milk, incubated o/n at 4C in diluted primary antibody, washed with TBS-T, incubated 1 hr in secondary antibody diluted in TBS-T plus milk, washed in TBS-T, and developed using SuperSignal ECL. Secondary antibodies: anti-rabbit (Millipore AP132P) and anti-mouse (Millipore AP124P). Nuclear fractions were isolated using a NE-PER nuclear and cytoplasmic extraction kit (Thermofisher) under manufacturers conditions.

[1] = system: human LKB1 mutant lung cancer cells; assay: FGFR1 resistance mechanism in human LKB1 mutant lung cancer cells; assay type: cell-based; settings: 9 days of trametinib treatment, entinostat treatment days 3-9 (6 days total)

## Nc1ccccc1NC(=O)c1ccc(CNC(=O)OCc2cccnc2)cc1 [entinostat]
KL lung tumors
  gMDSCs in lung tumors: No changes were observed
KL LJE1 cells; Western blot, 10 nM trametinib, 1 uM entinostat
  FGFR1 protein: neither FGFR1 protein or mRNA levels were impacted
KL LJE1 cells; qRT-PCR, 1 uM entinostat alone
  FGFR1 mRNA levels: neither FGFR1 protein or mRNA levels were impacted
[1]
  impact of Trametinib on the FGFR1 resistance mechanism: reverses the impact of Trametinib on the FGFR1 resistance mechanism
